Data on 6 compounds can be found in patent US20050043245A1, “Non-mammalian GnRH analogs and uses thereof in the immune system” (priority 2003, published 2005).

Square brackets hold non-standard residues; d marks the D form. Ends that are not written are not given here. Peptide text beside a SMILES is read from it. pGlu = O=C1CC[C@@H](C(=O)O)N1; azaGly = NNC(=O)O

One data set has as its system immune system receptor. Put plainly: Immune system GnRH receptor binding. Set-up: species or system human. The text has this:
The receptor binding activity of non-mammalian GnRH (SEQ ID NO: 6 and SEQ ID NO: 7) and non-mammalian GnRH analogs (SEQ ID NO: 2 and SEQ ID NO: 4) of the present invention will be compared. There is a human non-mammalian GnRH receptor which is distinct from the GnRH I receptor at the pituitary. […] They have also been designed to limit degradation by the immune system enzymes, present in lymphatic circulation. Binding activity of the newly synthesized non-mammalian GnRH analogs (SEQ ID NO: 2 and SEQ ID NO: 4) has been studied in plasma.
The newly synthesized non-mammalian GnRH analogs (SEQ ID NO: 2 and SEQ ID NO: 4) and other commercially available analogs have been used in receptor binding studies in plasma and enzyme stability study described here. On the basis of these studies, the most receptor potent and most enzyme-stable analogs have been chosen for further biopotency studies. GnRH receptors have been purified from the fractions from immune system tissues. The purification procedure for the GnRH receptor utilized ethanol precipatation of the receptor and not the GnRH. The remaining non-mammalian GnRH binding assays activity using ^125I-D-Arg-GnRH II-Aza-Gly-2^125 label and GnRH II have been performed. Receptors from two different tissues from the same type of immune system cells have been used to study each of these analogs. […]

For a further data set, the system named is rhesus monkeys. The note with it: chronic administration, long-acting; cited from earlier work.
Data set [1] deals with T1, human pituitary GnRH receptor (Homo sapiens, UniProt P30968).
T1 sequence (P30968 1-328): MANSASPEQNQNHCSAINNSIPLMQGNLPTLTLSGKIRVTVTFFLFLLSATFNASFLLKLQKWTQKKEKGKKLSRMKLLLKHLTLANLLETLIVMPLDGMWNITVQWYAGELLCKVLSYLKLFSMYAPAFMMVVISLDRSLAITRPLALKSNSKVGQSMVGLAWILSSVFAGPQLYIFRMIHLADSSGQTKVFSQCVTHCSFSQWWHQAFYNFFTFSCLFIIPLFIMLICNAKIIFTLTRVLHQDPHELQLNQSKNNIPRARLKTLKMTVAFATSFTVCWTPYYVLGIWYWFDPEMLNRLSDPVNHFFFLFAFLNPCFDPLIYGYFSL
Particulars: cited from earlier work.

In the next data set the test system is placental GnRH receptor. The note with it: cited from earlier work.
For another data set, the system named is human leukocytes. Put plainly: Cytokine release from cultured human leukocytes. The data set is classed as cell-based. The note with it: for effect on IL-4 production / effect on IL-8 production / effect on IL-10 production / effect on Interferon γ (INFγ) production: 2×10^−9 to 2×10^−7 M at 1, 3 and 20 hours; for activity on immune systems cytokines: compared among GnRH forms, varying doses. On the procedure:
Tissues of the immune system have been examined for the ability of their cells in vitro to respond to GnRH II (SEQ ID NO: 6) in culture medium. The media from cell cultures of immune system tissues have been examined for the release of cytokine into the medium after incubation with and without GnRH II analog (SEQ ID NO: 2).
Cell cultures of human leukocytes tissues have been prepared. […] The release of cytokines into the medium have been determined and compared for each form of GnRH studied.
We studied the effect of cytokines primarily produced by T cells. […] Concentrations of 2×10^−9 to 2×10^−7 M at 1, 3 and 20 hours were studied.
We have also studied cytokine produced primarily by B cells and macrophages. […] This is consistent with opposing activities followed by downregulation of the receptors with chronic high concentrations of the ligand.
Using our GnRH II analog (SEQ ID NO: 2) an inhibition of GM-CSF was clearly apparent after 20 hours of exposure.

In the next data set the test system is T cells. Particulars: effects only seen after twenty-four hours; cited from earlier work.
Data set [2] in a line: Whole blood, plasma and serum stability of GnRH II analog. Format: in vitro ADME. On the procedure:
FIG. 2 is a graph showing stability of GnRH II analog in blood and plasma. GnRH II Analog is stable throughout twenty-four hour of incubation in plasma and for the seventeen hours in serum following the initial serum formation.
The enzymatic degradation of the non-mammalian GnRH (SEQ ID NO: 6) and its analog (SEQ ID NO: 2) were studied using whole blood and plasma stability studies. A peptidase present in the immune system was used. Non-mammalian GnRH analogs (SEQ ID NO: 2) were designed with these specific criteria in mind. The stability of these non-mammalian GnRH analogs (SEQ ID NO: 2) to the enzymatic activity of the peptidase and in immune system cells were examined.
Each of these analogs was then studied for their ability to resist degradation over time of incubation with the immune system cells at 37° C. The reaction was stopped by freezing and the remaining GnRH I substrate, GnRH II substrate or non-mammalian analog was directly quantified by radioimmunoassay.
Studies using whole immune system cells were also performed. […] FIG. 2 is a graph showing stability of GnRH II in blood and plasma.

A further data set concerns human placental explants. The note with it: in vitro; cited from earlier work.
Setting [3] is: after one hour of treatment, still observed at 3 and 20 hours.

On to “salmon GnRH analog: salmon GnRH sequence modified at the 6 position using D-Arg and at the 10 position (ethylamide or aza-Gly^10-NH2)”, for which the “affinity for the immune system receptor relative to GnRH I” value in the data set with immune system receptor is on record as “greater affinity”.
“GnRH II: chicken II GnRH, natural non-mammalian GnRH isoform ([pGlu]HWSHGWYPG; ends and bridges not checked; listed as Gallus gallus)”: the contraceptive effect result with rhesus monkeys is “effective contraceptive agent”. Moreover, the “affinity for the human pituitary GnRH receptor” value in data set [1] is listed as “lesser affinity”. Also, the “affinity for the placental GnRH receptor” value in the data set on placental GnRH receptor is on record as “higher affinity”. Besides, in the data set with human leukocytes, the “effect on IL-4 production” value is given as “no effects”, the “effect on IL-8 production” value was “no effects”, the “effect on IL-10 production” value is “no effects” and the “effect on Interferon γ (INFγ) production” value is listed as “no effects”. Further, in the data set with human leukocytes, the “activity on immune systems cytokines” value is “greater activity”. Further, in the data set with human leukocytes (at 3 hours), the “effect on Interleukin 12 (IL-12)” value is on record as “inhibition”. Besides, the “effect on GM-CSF release” value with human leukocytes (high dose, 3 hrs) is reported as “inhibits”. For the same compound, the “effect on GM-CSF release” value with human leukocytes (low dose, 3 hrs) was “potent stimulant”. The “T cells adhesion and homing” value in the data set with T cells is reported as “stimulates”.
As to “salmon GnRH: natural non-mammalian GnRH isoform of salmon ([pGlu]HWSYGWLPG; ends and bridges not checked)”, the “affinity for the human pituitary GnRH receptor” value in data set [1] is “lesser affinity”. The “affinity for the placental GnRH receptor” value in the data set on placental GnRH receptor was “higher affinity”.
Turning to `N=C(N)NCCC[C@@H](NC(=O)[C@H](Cc1c[nH]cn1)NC(=O)[C@H](CO)NC(=O)[C@H](Cc1c[nH]c2ccccc12)NC(=O)[C@H](Cc1c[nH]cn1)NC(=O)[C@@H]1CCC(=O)N1)C(=O)N[C@@H](Cc1c[nH]c2ccccc12)C(=O)N[C@@H](Cc1ccc(O)cc1)C(=O)N1CCC[C@H]1C(=O)NNC(N)=O` [GnRH II analog, D-Arg-GnRH II-aza-Gly-amide] ([pGlu]HWSH[dR]WYP[azaGly]-NH2), the “affinity for the immune system receptor relative to GnRH I” value in the data set on immune system receptor is listed as “greater affinity”. Besides, the stability in serum result in data set [2] (seventeen hours in serum following the initial serum formation) is given as “stable”. Moreover, the stability in plasma entry in data set [2] (throughout twenty-four hour of incubation in plasma) is “stable”. In the data set on human leukocytes, the “effect on IL-4 production” value is recorded as “no effects”, the “effect on IL-8 production” value is “no effects”, the “effect on IL-10 production” value was “no effects” and the “effect on Interferon γ (INFγ) production” value is “no effects”. The “activity on immune systems cytokines” value in the data set with human leukocytes was “most active”. Besides, the “effect on GM-CSF release” value with human leukocytes (20 hours) is “inhibition”. For the same compound, the “effect on Interleukin 12 (IL-12)” value in the data set on human leukocytes (setting [3]) is on record as “inhibited”.
As to [N-Ac-Pro,D-p-Cl-Phe,D-Nal(2)]-GnRH I, in the data set with human placental explants, the hCG production/release entry was “inhibition”, the “placental prostanoids / basal prostaglandin production” value is given as “inhibited” and the progesterone production entry was “dramatically suppressed”.
For `CCNC(=O)[C@@H]1CCCN1C(=O)[C@H](CCCNC(=N)N)NC(=O)[C@H](CC(C)C)NC(=O)[C@@H](COC(C)(C)C)NC(=O)[C@H](Cc1ccc(O)cc1)NC(=O)[C@H](CO)NC(=O)[C@H](Cc1c[nH]c2ccccc12)NC(=O)[C@H](Cc1cnc[nH]1)NC(=O)[C@@H]1CCC(=O)N1` [Buserelin], in the data set on human leukocytes, the “effect on IL-4 production” value is recorded as “no effects”, the “effect on IL-8 production” value was “no effects”, the “effect on IL-10 production” value is reported as “no effects” and the “effect on Interferon γ (INFγ) production” value is “no effects”. In the data set with human leukocytes (setting [3]), the “effect on Interleukin 12 (IL-12)” value is “inhibited”.
